Test results taken from ChEMBL document CHEMBL4396870, “Pharmacological Chaperones for the Treatment of α-Mannosidosis” (J Med Chem, 2019).
Where a chain is given by its changes, count along the chain named. The source made the active and inactive calls. The rule behind the calls is not given here.

Columns and labels:
[1] = molecular target: T1, Lysosomal alpha-mannosidase (Homo sapiens) (UniProt O00754); assay: Chaperone activity at Lysosomal alpha-mannosidase in wild-type human fibroblasts assessed as effect on Lysosomal alpha-mannosidase activity at 0.002 to 0.02 uM using 4-methylumbelliferone alpha-D-mannopyranoside as a reporter substrate incubated for 4 days by fluorescence method relative to control
T1 sequence (whole entry): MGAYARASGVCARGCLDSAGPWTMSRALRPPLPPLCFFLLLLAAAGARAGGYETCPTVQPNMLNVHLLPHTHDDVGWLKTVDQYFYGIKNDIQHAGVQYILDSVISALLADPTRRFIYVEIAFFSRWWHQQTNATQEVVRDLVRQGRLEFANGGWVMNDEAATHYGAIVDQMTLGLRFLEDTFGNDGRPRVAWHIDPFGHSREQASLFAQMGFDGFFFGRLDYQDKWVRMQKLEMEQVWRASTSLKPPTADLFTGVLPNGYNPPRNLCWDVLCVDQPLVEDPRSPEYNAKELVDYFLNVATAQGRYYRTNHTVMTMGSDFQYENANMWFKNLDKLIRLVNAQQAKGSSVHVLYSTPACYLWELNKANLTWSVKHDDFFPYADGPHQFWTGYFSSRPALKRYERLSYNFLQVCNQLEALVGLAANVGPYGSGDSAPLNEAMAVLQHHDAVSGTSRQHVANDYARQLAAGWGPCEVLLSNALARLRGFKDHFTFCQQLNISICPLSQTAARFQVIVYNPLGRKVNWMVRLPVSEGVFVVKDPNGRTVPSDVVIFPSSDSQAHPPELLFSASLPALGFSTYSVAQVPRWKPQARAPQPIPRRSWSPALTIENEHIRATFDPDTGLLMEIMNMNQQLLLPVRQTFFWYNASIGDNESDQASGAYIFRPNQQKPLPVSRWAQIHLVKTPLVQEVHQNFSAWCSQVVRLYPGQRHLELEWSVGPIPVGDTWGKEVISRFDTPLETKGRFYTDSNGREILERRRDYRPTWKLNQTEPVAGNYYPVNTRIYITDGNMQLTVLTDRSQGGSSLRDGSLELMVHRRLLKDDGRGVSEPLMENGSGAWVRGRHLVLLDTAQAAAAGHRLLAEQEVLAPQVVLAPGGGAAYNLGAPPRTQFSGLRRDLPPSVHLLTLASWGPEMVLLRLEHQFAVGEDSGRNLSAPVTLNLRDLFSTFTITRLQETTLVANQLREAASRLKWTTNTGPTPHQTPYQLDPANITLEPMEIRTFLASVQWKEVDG

[2] = test system: T2, Lysosomal alpha-mannosidase (Homo sapiens), O00754 [L352P]; assay: Chaperone activity at human Lysosomal alpha-mannosidase L352P mutant transfected in human […] knockout HAP1 cells assessed as enzyme activity enhancement at 2 uM incubated for 96 hrs relative to control
T2 sequence (whole entry): T1 sequence (whole entry) with L352P

Activity [1]	Activity [2] [%]	Compound
inactive		CCCc1cn(CCCCCCN[C@@H]2[C@@H](O)[C@@H](O)[C@H](O)[C@H]3COC(=O)N32)nn1
	8	CC(C)(C)OC(=O)NCCCCCCCCCN[C@@H]1[C@@H](O)[C@@H](O)[C@H](O)[C@H]2COC(=O)N21
inactive	6	COC[C@H]1O[C@@H]2O[C@H]3[C@H](OC)[C@@H](OC)[C@@H](O[C@H]4[C@H](OC)[C@@H](OC)[C@@H](O[C@H]5[C@H](OC)[C@@H](OC)[C@@H](O[C@H]6[C@H](OC)[C@@H](OC)[C@@H](O[C@H]7[C@H](OC)[C@@H](OC)[C@@H](O[C@H]8[C@H](OC)[C@@H](OC)[C@@H](O[C@H]1[C@H](OC)[C@H]2OC)O[C@@H]8COC)O[C@@H]7COC)O[C@@H]6COC)O[C@@H]5COCc1cn(CCCCCCN[C@@H]2[C@@H](O)[C@@H](O)[C@H](O)[C@H]5COC(=O)N52)nn1)O[C@@H]4COC)O[C@@H]3COC
